Here are results for 20 compounds from patent US12479848B2, “Substituted fused heteroaromatic bicyclic compounds as kinase inhibitors and the use thereof” (IMPACT THERAPEUTICS (SHANGHAI), INC, priority 2019, dated 2025).

Test [1] deals with human lung cancer cell NCI-H460. As to the kind of experiment: MTT proliferation assay, NCI-H460. It counts as cell-based. As to conditions: Homo sapiens, NCI-H460, 96 h, 4 days, read-out: IC50 (nM), inhibition of proliferation of NCI-H460. Here is the method:
(§1) The cells were seeded into 96-well cell culture plate with a density of 2000/4000 cells per well and incubated overnight in a 5% CO2 incubator at 37° C. […] 5 L diluent of each concentration was added to 120 μL of medium (25 times diluted) and mixed by shaking. The overnight cell plates were taken and the culture medium was removed, 195 μL of fresh medium was added to each well, and 5 μL of diluted medium containing the corresponding concentration of the test compound was added respectively (the final concentration of DMSO is 1%), and the culture plate was then placed in a 5% CO2 incubator at 37° C. for 4 days. After removing the original solution, 100 μL of fresh serum-free DMEM medium containing MTT (0.5 mg/mL) was added to each well, the culture was continued. […] Cell viability (%)=(ODcompound−ODbackground)/(ODDMSO−ODbackground)×100. GraphPad Prism 6.0 was used to analyze the data. The inhibitory activity of compounds on cell proliferation was plotted based on cell viability and the logarithm of compound concentration.
On the technique in general: Tetrazolium dyes change colour on reduction, which living cells bring about.

Test [2] relates to human prostate cancer cell DU145. Description: MTT proliferation assay, DU145. It counts as cell-based. The settings on record: Homo sapiens, DU-145, 96 h, 4 days, read-out: IC50 (nM), inhibition of proliferation of DU145. Here is the method:
The cells were digested by trypsinase and centrifuged at 800 rpm for 5 minutes, the supernatant was discarded, and the residual was resuspended with fresh medium (DMEM medium+10% FBS+non-essential amino acid) and counted. The cells were seeded into 96-well cell culture plate with a density of 2000 cells per well and incubated overnight in a 5% CO2 incubator at 37° C. […] 5 μL of each concentration was added to 120 μL of medium (25 times diluted) and mixed by shaking. The overnight cell plates were taken and the culture medium was removed, 195 μL of fresh medium was added to each well, and 5 μL of diluted medium containing the corresponding concentration of the test compound was added respectively (the final concentrations of compounds are shown in Table 3, the final concentration of DMSO is 1%), and the culture plate was then placed in a 5% CO2 incubator at 37° C. for 4 days. After removing the original solution, 100 μL of fresh serum-free DMEM medium containing MTT (0.5 mg/mL) was added to each well, the culture was continued. […] GraphPad Prism 6.0 was used to analyze the data. The inhibitory activity of compounds on cell proliferation was plotted based on cell viability and the logarithm of compound concentration. Cell viability %=(ODcompound−ODbackground)/(ODDMSO−ODbackground)×100.

The target in test [3] is T1, ATR/ATRIP enzyme (Homo sapiens, UniProt Q13535).
T1 construct: purchased Eurofins 14-953
As to the kind of experiment: ATR enzyme activity experiment (HTRF). The format is biochemical. The settings on record: for inhibition at 0.05 µM: read-out: Inh %, inhibitory effects on ATR kinase activity at 50 nM; for IC50: HTRF, p53 substrate, 30 minutes at room temperature. Here is the method:
The test compound was diluted to a 4× final concentration with reaction buffer (25 mM HEPES (pH8.0), 10 mM MnCl2, 1% glycerol, 0.01% Brij-35, 5 mM DTT and 0.1% BSA). […] The mixture was centrifuged at 1000 rpm for 1 minute, and reacted at room temperature protected from light for 30 minutes. Then 5 μL of EDTA stop solution (250 mM) was added to stop the reaction. […] Data were analyzed using GraphPad Prism6.0, and fitted using the curve equation: Y=Bottom+(Top−Bottom)/(1+10^((Log IC50−X)*HillSlope)) and IC50 values were calculated.
Background: Time-resolved FRET reads energy transfer from a long-lived donor to a nearby acceptor.

The test system of test [4] is human colon cancer cell LoVo. Description: MTT proliferation assay, LoVo. The format is cell-based. As to conditions: Homo sapiens, LoVo, 96 h, 4 days, read-out: IC50 (nM), inhibition of proliferation of LoVo. The protocol: as §1, with “5 μL” for “5 L”, “viability (%)=(ODcompound−ODbackground)/(ODDMSO-ODbackground)×100.” for “viability (%)=(ODcompound−ODbackground)/(ODDMSO−ODbackground)×100.”

T1 sequence (Q13535 whole entry): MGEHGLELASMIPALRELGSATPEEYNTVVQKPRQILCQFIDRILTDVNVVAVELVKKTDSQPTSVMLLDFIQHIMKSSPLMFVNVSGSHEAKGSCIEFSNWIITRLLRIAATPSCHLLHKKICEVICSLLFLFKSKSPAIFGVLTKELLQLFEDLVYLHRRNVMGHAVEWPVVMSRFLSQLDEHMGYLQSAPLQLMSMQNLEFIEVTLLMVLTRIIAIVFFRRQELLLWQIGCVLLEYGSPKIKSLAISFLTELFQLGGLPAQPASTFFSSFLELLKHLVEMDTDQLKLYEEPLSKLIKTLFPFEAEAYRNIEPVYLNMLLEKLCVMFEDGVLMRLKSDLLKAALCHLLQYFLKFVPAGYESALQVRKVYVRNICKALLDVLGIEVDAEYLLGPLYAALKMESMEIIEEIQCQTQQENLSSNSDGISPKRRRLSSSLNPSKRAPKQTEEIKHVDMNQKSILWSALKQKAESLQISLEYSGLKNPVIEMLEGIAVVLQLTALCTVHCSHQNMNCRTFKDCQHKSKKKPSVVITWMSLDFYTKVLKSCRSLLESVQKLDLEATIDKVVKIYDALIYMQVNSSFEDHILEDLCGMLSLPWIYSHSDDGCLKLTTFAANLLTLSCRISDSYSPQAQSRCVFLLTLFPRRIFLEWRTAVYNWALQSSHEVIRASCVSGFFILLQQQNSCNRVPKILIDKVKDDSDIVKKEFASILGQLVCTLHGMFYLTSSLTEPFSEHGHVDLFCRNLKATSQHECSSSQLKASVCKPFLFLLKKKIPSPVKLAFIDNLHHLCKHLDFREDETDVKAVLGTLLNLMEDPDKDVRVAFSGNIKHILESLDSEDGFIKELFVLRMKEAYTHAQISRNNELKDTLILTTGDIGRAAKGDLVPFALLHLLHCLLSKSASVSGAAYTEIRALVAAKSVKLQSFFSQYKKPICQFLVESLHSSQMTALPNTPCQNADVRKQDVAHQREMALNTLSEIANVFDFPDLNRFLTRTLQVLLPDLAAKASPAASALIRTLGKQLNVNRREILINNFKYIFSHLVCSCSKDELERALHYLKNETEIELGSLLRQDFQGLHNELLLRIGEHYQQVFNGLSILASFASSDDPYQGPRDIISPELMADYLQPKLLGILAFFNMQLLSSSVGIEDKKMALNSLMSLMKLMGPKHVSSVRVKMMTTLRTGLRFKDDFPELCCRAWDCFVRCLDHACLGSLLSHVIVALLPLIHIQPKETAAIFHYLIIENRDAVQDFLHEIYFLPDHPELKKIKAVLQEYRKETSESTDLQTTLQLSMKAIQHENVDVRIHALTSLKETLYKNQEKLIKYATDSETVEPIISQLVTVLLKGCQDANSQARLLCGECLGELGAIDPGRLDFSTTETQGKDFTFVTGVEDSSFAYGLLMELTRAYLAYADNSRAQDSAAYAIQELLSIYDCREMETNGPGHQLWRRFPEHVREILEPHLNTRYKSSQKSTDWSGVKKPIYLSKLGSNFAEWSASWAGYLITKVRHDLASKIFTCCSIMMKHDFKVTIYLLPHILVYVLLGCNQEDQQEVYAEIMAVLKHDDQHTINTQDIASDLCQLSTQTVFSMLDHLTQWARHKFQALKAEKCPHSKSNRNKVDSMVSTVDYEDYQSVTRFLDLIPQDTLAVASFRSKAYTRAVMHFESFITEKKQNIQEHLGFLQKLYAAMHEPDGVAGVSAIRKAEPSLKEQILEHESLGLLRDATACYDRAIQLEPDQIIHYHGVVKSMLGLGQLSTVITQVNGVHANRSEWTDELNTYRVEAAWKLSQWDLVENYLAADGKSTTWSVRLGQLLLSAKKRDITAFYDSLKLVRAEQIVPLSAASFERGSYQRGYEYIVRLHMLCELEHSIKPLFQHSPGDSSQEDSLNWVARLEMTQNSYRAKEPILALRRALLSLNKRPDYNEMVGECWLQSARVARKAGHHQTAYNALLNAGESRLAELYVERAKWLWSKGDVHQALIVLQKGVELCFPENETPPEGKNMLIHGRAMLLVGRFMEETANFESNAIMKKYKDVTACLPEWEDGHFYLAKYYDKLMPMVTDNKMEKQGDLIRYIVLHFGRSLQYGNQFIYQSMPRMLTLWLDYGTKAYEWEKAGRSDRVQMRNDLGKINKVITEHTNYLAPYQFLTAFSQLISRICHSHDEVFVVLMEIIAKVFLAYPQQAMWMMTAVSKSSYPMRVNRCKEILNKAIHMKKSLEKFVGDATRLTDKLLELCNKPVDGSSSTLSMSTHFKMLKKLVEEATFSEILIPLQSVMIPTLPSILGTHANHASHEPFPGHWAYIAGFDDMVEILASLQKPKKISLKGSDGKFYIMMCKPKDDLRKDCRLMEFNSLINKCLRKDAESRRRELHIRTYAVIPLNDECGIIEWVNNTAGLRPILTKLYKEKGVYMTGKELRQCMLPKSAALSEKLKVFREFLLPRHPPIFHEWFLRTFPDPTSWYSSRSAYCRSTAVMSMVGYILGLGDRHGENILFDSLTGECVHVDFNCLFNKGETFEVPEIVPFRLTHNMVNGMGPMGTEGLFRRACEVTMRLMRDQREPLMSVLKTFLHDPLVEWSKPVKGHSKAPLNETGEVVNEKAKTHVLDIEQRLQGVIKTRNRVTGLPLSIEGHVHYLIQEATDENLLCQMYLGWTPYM
T1 sequence (Q8WXE1 whole entry partner): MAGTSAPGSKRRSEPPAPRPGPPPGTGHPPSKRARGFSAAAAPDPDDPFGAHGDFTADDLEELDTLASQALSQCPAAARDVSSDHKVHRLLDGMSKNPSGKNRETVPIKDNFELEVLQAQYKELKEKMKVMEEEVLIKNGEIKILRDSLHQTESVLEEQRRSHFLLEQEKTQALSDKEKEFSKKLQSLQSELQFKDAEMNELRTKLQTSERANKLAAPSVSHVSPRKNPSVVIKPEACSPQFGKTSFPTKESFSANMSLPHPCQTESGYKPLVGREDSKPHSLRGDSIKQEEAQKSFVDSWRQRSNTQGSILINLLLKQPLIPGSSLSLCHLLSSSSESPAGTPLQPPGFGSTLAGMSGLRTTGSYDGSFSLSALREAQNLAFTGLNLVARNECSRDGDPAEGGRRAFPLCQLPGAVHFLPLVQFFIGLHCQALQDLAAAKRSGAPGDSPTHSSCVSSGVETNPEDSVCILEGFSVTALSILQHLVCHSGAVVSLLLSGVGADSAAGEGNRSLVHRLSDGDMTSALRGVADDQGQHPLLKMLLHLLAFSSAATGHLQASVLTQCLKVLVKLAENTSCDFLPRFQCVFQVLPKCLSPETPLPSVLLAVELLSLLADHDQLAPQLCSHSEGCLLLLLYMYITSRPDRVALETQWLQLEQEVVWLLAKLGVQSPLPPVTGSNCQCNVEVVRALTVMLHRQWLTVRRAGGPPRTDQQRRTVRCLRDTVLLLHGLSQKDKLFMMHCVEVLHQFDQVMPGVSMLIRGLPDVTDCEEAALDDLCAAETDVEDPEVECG

For the compound `C[C@@H]1CN(c2cc(N3CCOC[C@H]3C)nn3c(-c4ccn[nH]4)cnc23)C[C@H](C)O1` [Example 10, (2S,6R)-2,6-dimethyl-4-(6-((R)-3-methylmorpholino)-3-(1H-pyrazol-5-yl)imidazo[1,2-b]pyridazin-8-yl)morpholine], the IC50 in test [1] was found to be 1110 nM; in test [2] it was 2300 nM.
The like results for `C[C@@H]1COCCN1c1cc(-c2ccnn2C)n2ncc(-c3ccn[nH]3)c2n1` [Example 16, (R)-3-methyl-4-(7-(1-methyl-1H-pyrazol-5-yl)-3-(1H-pyrazol-5-yl)pyrazolo[1,5-a]pyrimidin-5-yl)morpholine] were, in that order, 527 nM and 1370 nM.
The like results for `CCn1nccc1-c1cc(N2CCOC[C@H]2C)nn2c(-c3ccn[nH]3)cnc12` [Example 3, (R)-3-methyl-4-(8-(1-ethyl-1H-pyrazol-5-yl)-3-(1H-pyrazol-5-yl)imidazo[1,2-b]pyridazin-6-yl)morpholine] were, in that order, 1040 nM and 1100 nM.
The like results for `C[C@@H]1COCCN1c1cc(-c2ccc(S(C)(=O)=O)cc2)c2ncc(-c3ccn[nH]3)n2n1` [Example 7, (R)-3-methyl-4-(8-(4-(methylsulfonyl)phenyl)-3-(1H-pyrazol-5-yl)imidazo[1,2-b]pyridazin-6-yl)morpholine] were, in that order, 864 nM and 1200 nM.
In the case of `C[C@@H]1COCCN1c1cc(-c2ccc(S(C)(=O)=O)cc2)c2cnc(-c3ccn[nH]3)n2n1` [Example 35, (R)-3-methyl-4-(4-(4-(methylsulfonyl)phenyl)-7-(1H-pyrazol-5-yl)imidazo[1,5-b]pyridazin-2-yl)morpholine], the values for the IC50 in test [1] and in test [4] were 171 nM and 75.4 nM, respectively. In addition, the inhibition at 0.05 µM in test [3] was determined as 71%.
On to `C[C@@H]1COCCN1c1cc(-c2ccnn2C)c2cnc(-c3cc[nH]c3)n2n1` [Example 21, (R)-3-methyl-4-(4-(1-methyl-1H-pyrazol-5-yl)-7-(1H-pyrrol-3-yl)imidazo[1,5-b]pyridazin-2-yl)morpholine], for which the IC50 in test [1] amounted to 244 nM; in test [3], 6.78 nM; in test [4], 155 nM.
Turning to `C[C@@H]1COCCN1c1cc(N2CCOCC2)c2ncc(-c3ccn[nH]3)n2n1` [Example 9, (R)-3-methyl-4-(8-morpholino-3-(1H-pyrazol-5-yl)imidazo[1,2-b]pyridazin-6-yl)morpholine], the IC50 was 583 nM in test [1] and 1630 nM in test [2].
As to `Cc1ccc(-c2cc(N3CCOC[C@H]3C)nn3c(-c4ccn[nH]4)cnc23)cn1` [Example 6, (R)-3-methyl-4-(8-(6-methylpyridin-3-yl)-3-(1H-pyrazol-5-yl)imidazo[1,2-b]pyridazin-6-yl)morpholine], the IC50 worked out at 322 nM in test [1] and 914 nM in test [2].
In the case of `C[C@@H]1COCCN1c1cc(-c2ccncc2F)c2cnc(-c3ccn[nH]3)n2n1` [Example 43, (R)-4-(4-(3-fluoropyridin-4-yl)-7-(1H-pyrazol-5-yl)imidazo[1,5-b]pyridazin-2-yl)-3-methylmorpholine], the IC50 was determined as 18.2 nM in test [1], 12 nM in test [3] and 23.1 nM in test [4].
Take `CCn1nccc1-c1cc(N2CCOC[C@H]2C)nn2c(-c3ccn[nH]3)ncc12` [Example 37, (R)-4-(4-(1-ethyl-1H-pyrazol-5-yl)-7-(1H-pyrazol-5-yl)imidazo[1,5-b]pyridazin-2-yl)-3-methylmorpholine]: the values for the IC50 in test [1], in test [3] and in test [4] were 58.8 nM, 7 nM and 45 nM, respectively.
The like results for `C[C@@H]1COCCN1c1cc(-c2ccccc2F)c2cnc(-c3ccn[nH]3)n2n1` [Example 25, (R)-4-(4-(2-fluorophenyl)-7-(1H-pyrazol-5-yl)imidazo[1,5-b]pyridazin-2-yl)-3-methylmorpholine] were, in that order, 40.4 nM, 7 nM and 61.9 nM.
Take `C[C@@H]1COCCN1c1cc(-c2ccccc2F)c2ncc(-c3ccn[nH]3)n2n1` [Example 8, (R)-3-methyl-4-(8-(2-fluorophenyl)-3-(1H-pyrazol-5-yl)imidazo[1,2-b]pyridazin-6-yl)morpholine]: the IC50 is 409 nM in test [1] and 1110 nM in test [2].
For `Cc1nc([S+](C)[O-])ccc1-c1cc(N2CCOC[C@H]2C)nn2c(-c3ccn[nH]3)ncc12` (stereo partly drawn) [Example 50, (3R)-3-methyl-4-(4-(2-methyl-6-(methylsulfinyl)pyridin-3-yl)-7-(1H-pyrazol-5-yl)imidazo[1,5-b]pyridazin-2-yl)morpholine], the figures for the IC50 in test [1], in test [3] and in test [4] were 86.8 nM, 16 nM and 59.9 nM, respectively.
With `C[C@@H]1COCCN1c1cc(C2CC2)c2cnc(-c3ccn[nH]3)n2n1` [Example 32, (R)-4-(4-cyclopropyl-7-(1H-pyrazol-5-yl)imidazo[1,5-b]pyridazin-2-yl)-3-methylmorpholine], the values for the IC50 in test [1], in test [3] and in test [4] were 78.6 nM, 15 nM and 87.3 nM, respectively.
The like results for `Cc1cc(S(C)(=O)=O)ccc1-c1cc(N2CCOC[C@H]2C)nn2c(-c3ccn[nH]3)ncc12` [Example 49, (R)-3-methyl-4-(4-(2-methyl-4-(methylsulfonyl)phenyl)-7-(1H-pyrazol-5-yl)imidazo[1,5-b]pyridazin-2-yl)morpholine] were, in that order, 43 nM, 6 nM and 32.9 nM.
The like results for `C[C@@H]1COCCN1c1cc(-c2cncn2C)c2ncc(-c3ccn[nH]3)n2n1` [Example 5, (R)-3-methyl-4-(8-(1-methyl-1H-imidazol-5-yl)-3-(1H-pyrazol-5-yl)imidazo[1,2-b]pyridazin-6-yl)morpholine] were, in that order, 1610 nM, 58.9 nM and 557 nM.
On to `Cn1nccc1-c1cc(N2CCOCC2)nn2c(-c3ccn[nH]3)ncc12` [Example 11, 4-(4-(1-methyl-1H-pyrazol-5-yl)-7-(1H-pyrazol-5-yl)imidazol[1,5-b]pyridazin-2-yl)morpholine], for which the IC50 in test [1] is 159 nM; in test [4], 168 nM. In test [3], the inhibition at 0.05 µM came out at 63%.
`Cc1ncccc1-c1cc(N2CCOC[C@H]2C)nn2c(-c3ccn[nH]3)ncc12` [Example 42, (R)-3-methyl-4-(4-(2-methylpyridin-3-yl)-7-(1H-pyrazol-5-yl)imidazo[1,5-b]pyridazin-2-yl)morpholine]: the IC50 in test [1] is 30.6 nM; in test [3] it was 2 nM; in test [4], 44.7 nM.
For the compound `Cc1n[nH]cc1-c1cc(N2CCOC[C@H]2C)nn2c(-c3ccn[nH]3)ncc12` [Example 38, (R)-3-methyl-4-(4-(3-methyl-1H-pyrazol-4-yl)-7-(1H-pyrazol-5-yl)imidazo[1,5-b]pyridazin-2-yl)morpholine], the IC50 in test [1] stood at 419 nM; in test [4], 128 nM. Moreover, the inhibition at 0.05 µM in test [3] was 90%.
In the case of `Cc1ccc(-c2cc(N3CCOC[C@H]3C)nn3c(-c4cc(C)n[nH]4)ncc23)cn1` [Example 39, (R)-3-methyl-4-(7-(3-methyl-1H-pyrazol-5-yl)-4-(6-methylpyridin-3-yl)imidazo[1,5-b]pyridazin-2-yl)morpholine], the IC50 in test [1] was 26.1 nM; in test [3] it was 3 nM; in test [4], 30.7 nM.
